Converted amounts (≈) assume the structure as drawn. “Also recorded” adds a separate entry of the source. Read-outs that look alike come from different tables or passages of the source.
Experiments:
[1] = system: E. coli urine isolate EC236; experiment: Minimum inhibitory concentration (MIC); conditions: Escherichia coli, read-out: Minimum inhibitory concentration (MIC)
[2] = system: E. coli urine isolate EC235; experiment: Minimum inhibitory concentration (MIC); conditions: Escherichia coli, read-out: Minimum inhibitory concentration (MIC)
[3] = system: CR-K. pneumoniae (ATCC BAA-1705); experiment: Minimum inhibitory concentration (MIC); conditions: for Minimum inhibitory concentration (MIC): CR-K. pneumoniae ATCC BAA-1705, PAβN + (40 μg/mL); for MIC: Klebsiella pneumoniae
[4] = system: K. pneumoniae Kp233; experiment: Minimum inhibitory concentration (MIC); conditions: for MIC: Klebsiella pneumoniae
[5] = system: P. aeruginosa PA01; experiment: Minimum inhibitory concentration (MIC); conditions: for Minimum inhibitory concentration (MIC): P. aeruginosa PA01, PAβN + (40 μg/mL); for MIC: Pseudomonas aeruginosa, PA01, read-out: Minimum inhibitory concentration (MIC)
[6] = system: Kp233/pJBA110; experiment: GFP fluorescence assay (protein synthesis); conditions: highest concentration used (100 μg/mL), 15 hr
[7] = system: MRSA; experiment: Minimum inhibitory concentration (MIC); conditions: Staphylococcus aureus, read-out: Minimum inhibitory concentration (MIC)
[8] = system: K. pneumoniae strain BAA-1705; experiment: High-throughput screen / dose-response based on mannose fermentation; conditions: for Inhibition of mannose fermentation: 22 hours, pH-DM, concentrations similar to primary and cherry-pick screens
[9] = system: HeLa S3 cells; experiment: Alamar Blue assay for cytotoxicity; type: cell-based, human; conditions: 20 hours
Experimental: Alamar Blue assay for cytotoxicity. HeLa S3 cells were cultured in Dulbecco's modified Eagle medium supplemented with 10% fetal bovine serum, 100 U/mL penicillin, and 100 μg/mL streptomycin. Each well of a 96-well microtiter plate (Nunclon Delta Surface, Thermo Scientific) was seeded with 10,000 cells in 100 μL of culture medium. Cells were incubated for 18 hr in a humidified incubator at 37° C. with 5% CO2 to allow attachment. Compounds were added to the adherent cells to yield a final concentration of 13 and 107 μg/mL. Positive control wells contained 0.1% Triton X-100, carrier control wells contained DMSO, and negative control wells contained medium and cells without DMSO. After addition of compounds, 0.1% Triton, or DMSO, plates were returned to the incubator. Cell viability was measured by resazurin reduction. Alamar Blue reagent (Invitrogen) was added to the cells after a 1.5 hr incubation with the test compounds. Cells were incubated for 20 hr, and then fluorescence was measured using the Infinite 200 (Tecan) with excitation and emission wavelengths of 550 nm and 590 nm, respectively. To calculate viability, the average fluorescence value of Triton-treated positive control wells was subtracted from that of untreated wells or wells containing test compounds. These values were then divided by the average fluorescence of untreated wells to give cell viability as a percentage of the negative control.

[10] = system: resistant GNR; experiment: MIC with and without efflux pump inhibitor PAβN, resistant GNR as a group
[11] = system: CR K. pneumoniae strain BAA-1705; experiment: Dose-response growth inhibition (viable cell counts in LB broth); conditions: 22 hr in LB broth, concentrations tested 0.78-50 μg/mL
[12] = system: A. baumanii; experiment: Minimum inhibitory concentration (MIC); conditions: for Minimum inhibitory concentration (MIC): A. baumanii, PAβN + (40 μg/mL); for MIC: Acinetobacter baumannii, read-out: Minimum inhibitory concentration (MIC)
[13] = system: K. pneumoniae (Kp233); experiment: Morphometric analysis by phase contrast microscopy; type: cell-based, Klebsiella pneumoniae; conditions: stationary phase cells, 4 hr; compounds 100 μl/mI alone or with PAβN, ampicillin 150 μg/mL
Experimental: (§1) Morphometric analysis. Carbapenem-susceptible Kp233 were treated as described for stationary phase viability assays, with the exception that negative control wells contained no DMSO and no antimicrobials. Ampicillin (150 μg/mL) was used as a positive control. Cells were incubated statically at 37° C. for 4 hr. Thirty μL from each well was transferred into a 24-well plate filled with 300 μL of LB broth. Images were captured with a 40× magnification lens using a Nikon Eclipse TE2000-E microscope. Morphometric analysis was carried out using IPLab 4.0 software.

[14] = system: Group A streptococcus; experiment: Minimum inhibitory concentration (MIC); conditions: read-out: Minimum inhibitory concentration (MIC)
[15] = Particulate matter in aqueous media (micrographs); type: physicochemical; conditions: 100 μg/mL in culture medium
Experimental: as §1

[16] = target: T1, Glut1 (Homo sapiens, UniProt P11166); conditions: high-throughput screen, PubChem BioAssay; cited from earlier work
T1 sequence (P11166 1-492): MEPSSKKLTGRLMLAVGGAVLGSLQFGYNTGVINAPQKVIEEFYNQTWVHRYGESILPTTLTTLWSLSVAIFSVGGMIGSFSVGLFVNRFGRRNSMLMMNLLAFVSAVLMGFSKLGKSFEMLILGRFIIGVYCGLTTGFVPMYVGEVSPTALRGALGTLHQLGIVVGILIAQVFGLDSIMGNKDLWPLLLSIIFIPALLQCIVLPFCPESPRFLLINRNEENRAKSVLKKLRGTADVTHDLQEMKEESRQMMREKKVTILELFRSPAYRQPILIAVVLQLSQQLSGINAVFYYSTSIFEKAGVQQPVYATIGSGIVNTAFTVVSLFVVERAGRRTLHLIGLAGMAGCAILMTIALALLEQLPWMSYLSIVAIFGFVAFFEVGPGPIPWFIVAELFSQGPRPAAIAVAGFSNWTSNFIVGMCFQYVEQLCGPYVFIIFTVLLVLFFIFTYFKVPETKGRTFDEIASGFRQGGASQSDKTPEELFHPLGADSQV

[17] = target: LmGT2 (Leishmania mexicana, UniProt O61059); conditions: high-throughput screen, PubChem BioAssay; cited from earlier work
[18] = system: K. pneumoniae (Kp233); experiment: Compound impact on bacterial viability (exponential and stationary phase); type: cell-based, Klebsiella pneumoniae; conditions: 4 hr
Experimental: Compound impact on bacterial viability. […] One hundred μL of each compound preparation was dispensed into the wells of a microtiter plate. Negative (untreated) wells contained LB with or without PAβN only. Stationary phase cell viability. A glycerol stock of the carbapenem-susceptible clinical strain of K. pneumoniae (Kp233) was inoculated into 1.5 mL of LB and incubated overnight (approximately 18 hr) at 37° C. with shaking. […] Cells were incubated statically at 37° C. for 4 hr, and viable counts were determined by plating. Exponential phase cell viability. Overnight cultures of Kp233 were diluted 1:5,000 into 50 mL of LB broth and incubated at 37° C. with shaking at 200 rpm. […] These cells were also washed twice with NS and inoculated into the wells of a microtiter plate prepared as described above. Cells were incubated statically at 37° C. for 4 hr, and viable counts were determined by plating.

[19] = ATCCBAA1705, read-out: Minimum inhibitory concentration (MIC)
[20] = KP233, read-out: Minimum inhibitory concentration (MIC)

Chain of LmGT2 (O61059 entry or part of it): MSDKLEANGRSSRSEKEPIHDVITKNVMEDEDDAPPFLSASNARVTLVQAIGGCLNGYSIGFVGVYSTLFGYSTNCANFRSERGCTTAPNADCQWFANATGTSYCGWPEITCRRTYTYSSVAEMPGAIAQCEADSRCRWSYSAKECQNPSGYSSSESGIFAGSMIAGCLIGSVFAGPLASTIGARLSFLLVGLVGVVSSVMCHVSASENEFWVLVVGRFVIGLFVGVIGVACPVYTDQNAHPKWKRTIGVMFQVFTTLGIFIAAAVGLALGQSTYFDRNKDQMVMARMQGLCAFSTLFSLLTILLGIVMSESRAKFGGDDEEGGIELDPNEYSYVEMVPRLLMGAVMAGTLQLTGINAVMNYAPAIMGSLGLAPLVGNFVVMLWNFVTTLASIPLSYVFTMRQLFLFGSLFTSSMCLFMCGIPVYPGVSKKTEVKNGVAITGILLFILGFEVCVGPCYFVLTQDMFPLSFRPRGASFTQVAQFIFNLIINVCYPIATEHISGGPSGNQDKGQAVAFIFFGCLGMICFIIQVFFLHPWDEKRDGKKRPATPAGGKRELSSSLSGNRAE

**Q.** What does the source list for O=C(N[C@H](CO)[C@H](O)c1ccc([N+](=O)[O-])cc1)C(Cl)Cl [Cm, chloramphenicol, reference compound]?
**A.** MIC [1]: < 9 µg/mL; MIC [2]: < 9 µg/mL; Minimum inhibitory concentration (MIC) [3]: 39 µg/mL; Reduction of MIC by PAβN ([3]; K. pneumoniae, with PAβN versus without): 32 fold; MIC [3, 19]: 1250 µg/mL (≈ 3870 µM); MIC [4, 20]: < 9 µg/mL

**Q.** What does the source list for Cc1nnc(SCC2=NN(c3nc4ccccc4[nH]3)C(=O)C2)s1 [Compound C17]?
**A.** Minimum inhibitory concentration (MIC) [5]: 48 µg/mL; MIC [5]: > 96 µg/mL; Bacterial growth (OD) and GFP fluorescence [6]: decreased both bacterial growth and protein synthesis; MIC [7]: 24 µg/mL (≈ 69.7 µM); Inhibition of mannose fermentation [8]: inhibited fermentation; Activity in cherry-pick re-test ([8]; dispensed by HP D300 digital dispenser): significant activity; Toxicity to HeLa S3 cells (viability by resazurin reduction) ([9]; 13 and 107 μg/mL): least toxic; also recorded: not toxic; MIC [1]: 96 µg/mL (≈ 279 µM); Change of MIC on addition of PAβN (in words) [10]: minimally decreased; MIC [2]: 96 µg/mL (≈ 279 µM); Growth inhibition (CFU/ml) [11]: inhibited growth; Minimum inhibitory concentration (MIC) [12]: 24 µg/mL; MIC [12]: > 96 µg/mL; Cell shape / average particle size [13]: do not significantly alter cell shape; Minimum inhibitory concentration (MIC) [3]: 48 µg/mL; MIC [3, 19]: 96 µg/mL (≈ 279 µM); MIC [14]: 96 µg/mL (≈ 279 µM); MIC [4, 20]: 48 µg/mL (≈ 139 µM); Particulate matter in micrographs (insolubility in aqueous media) [15]: not

**Q.** With Cc1nn2c(=O)cc(-c3ccc(F)cc3)[nH]c2c1-c1ccccc1 [Compound F02] as the compound, how does the “Toxicity to HeLa S3 cells (viability by resazurin reduction)” value ([9]; higher concentration (107 μg/mL)) read?
**A.** moderately toxic

**Q.** Which “Minimum inhibitory concentration (MIC)” value [5] does the source give for Clc1cc(Br)ccc1-c1ccc(CNCC2CCNCC2)o1 [Compound O06] here?
**A.** 24 µg/mL

**Q.** What about the MIC [5] of the same compound?
**A.** > 96 µg/mL

**Q.** And the “Bacterial growth (OD) and GFP fluorescence” value [6]?
**A.** decreased both bacterial growth and protein synthesis

**Q.** What about the “Activity in screen for Glut1 inhibitors” value [16] of the same compound?
**A.** active

**Q.** What about the MIC [7] of the same compound?
**A.** 48 µg/mL (≈ 125 µM)

**Q.** What about the “Inhibition of mannose fermentation” value [8] of the same compound?
**A.** inhibited fermentation

**Q.** And the “Toxicity to HeLa S3 cells (viability by resazurin reduction)” value ([9]; 13 and 107 μg/mL)?
**A.** most toxic

**Q.** What about the MIC [1] of the same compound?
**A.** 96 µg/mL (≈ 250 µM)

**Q.** What about the “Change of MIC on addition of PAβN (in words)” value [10] of the same compound?
**A.** minimally decreased

**Q.** And the MIC [2]?
**A.** 96 µg/mL (≈ 250 µM)

**Q.** And the “Minimum inhibitory concentration (MIC)” value [12]?
**A.** 24 µg/mL

**Q.** What about the MIC [12] of the same compound?
**A.** 48 µg/mL (≈ 125 µM)

**Q.** And the “Cell shape / average particle size” value [13]?
**A.** do not significantly alter cell shape

**Q.** And the “Minimum inhibitory concentration (MIC)” value [3]?
**A.** 96 µg/mL

**Q.** What about the MIC [3, 19] of the same compound?
**A.** 96 µg/mL (≈ 250 µM)

**Q.** And the MIC [14]?
**A.** 48 µg/mL (≈ 125 µM)

**Q.** And the “Activity in screen for LmGT2 inhibitors” value [17]?
**A.** active

**Q.** What about the MIC [4, 20] of the same compound?
**A.** 96 µg/mL (≈ 250 µM)

**Q.** And the “Bacterial viability (CFU) with efflux pump inhibition” value ([18]; 100 μg/mL compound + PAβN 40 μg/ml, exponential and stationary phase)?
**A.** significantly potentiated the killing activity; also recorded: significantly decrease the viability

**Q.** What about the “Bacterial viability (CFU)” value ([18]; 100 μg/mL compound alone, exponential and stationary phase) of the same compound?
**A.** decreased the viability

**Q.** What about the “Particulate matter in micrographs (insolubility in aqueous media)” value [15] of the same compound?
**A.** not

**Q.** Which results are given for C[C@H]1COc2c(N3CCN(C)CC3)c(F)cc3c(=O)c(C(=O)O)cn1c23 [Lev, levofloxacin, reference compound]?
**A.** Minimum inhibitory concentration (MIC) [5]: 0.015 µg/mL; Reduction of MIC by PAβN ([5]; P. aeruginosa, with PAβN versus without): 16 fold; MIC [5]: 0.25 µg/mL (≈ 0.692 µM); MIC [1]: 0.015 µg/mL (≈ 0.0415 µM); MIC [2]: 0.015 µg/mL (≈ 0.0415 µM); MIC [4, 20]: 0.031 µg/mL (≈ 0.0858 µM)

**Q.** Which “Cell shape / average particle size” value [13] does the source give for CC1(C)S[C@@H]2[C@H](NC(=O)[C@H](N)c3ccccc3)C(=O)N2[C@H]1C(=O)O [ampicillin, reference compound] here?
**A.** formed filaments with significantly increased average particle size

**Q.** For O=C1C=C2C(=CCOC2O)O1 (centres unmarked) [patulin, reference compound], which MIC ([3]; ATCCBAA1705, read-out: Minimum inhibitory concentration, CR-K. pneumoniae ATCC BAA-1705, Defined Medium) is on record?
**A.** 9.38 µg/mL (≈ 60.9 µM)

**Q.** What about the MIC ([3]; ATCCBAA1705, read-out: Minimum inhibitory concentration, CR-K. pneumoniae ATCC BAA-1705, LB broth (rich medium)) of the same compound?
**A.** 18.8 µg/mL (≈ 122 µM)

**Q.** And the Minimum inhibitory concentration ([4]; K. pneumoniae Kp233, Defined Medium)?
**A.** 9.38 µg/mL (≈ 60.9 µM)

**Q.** What about the MIC ([4]; KP233, read-out: Minimum inhibitory concentration) of the same compound?
**A.** 9.38 µg/mL (≈ 60.9 µM)

**Q.** Which “Bacterial viability (CFU)” value ([18]; PAβN 40 μg/mL alone, exponential or stationary phase) does the source give for “phenylalanine-arginine β-naphthylamide [PAβN, reference compound]” here?
**A.** did not decrease the viability

Reference: US12377079B2, “Antibacterial compounds and uses thereof” (The Children's Medical Center Corporation, priority 2018, dated 2025)
